Assay results taken from US7479478B2, “Human parathyroid hormone modifications, preparation and use” (The General Hospital Corporation, priority 1998, dated 2009).
No end group written: not given here.

Columns and labels:
rat PTH-1 receptors [1] = target: T1, rat PTH-1 receptors (Rattus norvegicus, UniProt P25961); assay: AC activation (cAMP) in EW5 cells; format: cell-based
T1 construct: expressed in transfected cells
T1 sequence (P25961 27-591): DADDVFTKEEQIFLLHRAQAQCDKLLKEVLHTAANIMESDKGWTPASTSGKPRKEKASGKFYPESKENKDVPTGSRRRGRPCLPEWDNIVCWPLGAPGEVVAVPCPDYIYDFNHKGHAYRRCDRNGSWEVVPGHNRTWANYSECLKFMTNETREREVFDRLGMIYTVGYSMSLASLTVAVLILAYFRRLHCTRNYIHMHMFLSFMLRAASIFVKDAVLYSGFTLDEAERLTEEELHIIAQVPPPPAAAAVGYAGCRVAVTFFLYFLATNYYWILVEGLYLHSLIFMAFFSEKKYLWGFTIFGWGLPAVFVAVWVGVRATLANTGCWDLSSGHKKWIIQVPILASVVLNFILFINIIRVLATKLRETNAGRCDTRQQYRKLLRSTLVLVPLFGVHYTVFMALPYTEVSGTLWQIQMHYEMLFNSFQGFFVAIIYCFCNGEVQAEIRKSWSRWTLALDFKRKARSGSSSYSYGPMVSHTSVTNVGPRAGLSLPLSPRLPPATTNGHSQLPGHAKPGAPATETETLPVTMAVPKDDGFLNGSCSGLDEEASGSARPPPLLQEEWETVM
Procedure: HKRK B7 or EW5 cells (32), subclones of LLC-PKI renal epithelial cells that stably express human or rat PTH-1 receptors (950,000 and 320,000 receptors/cell, respectively), were maintained under 5% CO2 in air in Dulbecco's modified essential medium containing 7% fetal bovine serum (FBS) and 1% penicillin/streptomycin (GIBCO-BRL, Grand Island, N.Y.). HEK-293 and COS-7 cells were cultured similarly, except that 10% FBS was used in the medium. Cells were seeded into 24-well plates two days before assay at a density of 2-2.5×10^5 cells/well (HKRK B7 or EW 5 cells) or 6×10^5 cells/well (in 6-well plates) (HEK-293 cells). […]
Intracellular cAMP accumulation, PLC activation and PTHR binding affinity were measured as previously reported (Bringhurst, F. R., et al., Endocrinology 132(5):2090-2098 (1993); Guo, J., et al., Endocrinology 136(9):3884-3891 (1995)). Intracellular cAMP accumulation was measured in extracts of cells that were exposed to human PTH peptides in the presence of isobutylmethyxanthine (IBMX, 1 mM) at 37° C. for 15 min. After terminating the reactions by aspiration and freezing in liquid nitrogen, cell monolayers were extracted with 50 mM HCl and cAMP was measured using a radioimmunoassay kit (Dupont-New England Nuclear, Boston, Mass.). […]

rat PTH-1 receptors [2] = target: T1, rat PTH-1 receptors; assay: Radioligand binding in EW5 cells; settings: compared with human PTH-1 receptor
Procedure: (§1) HKRK B7 or EW5 cells (32), subclones of LLC-PKI renal epithelial cells that stably express human or rat PTH-1 receptors (950,000 and 320,000 receptors/cell, respectively), were maintained under 5% CO2 in air in Dulbecco's modified essential medium containing 7% fetal bovine serum (FBS) and 1% penicillin/streptomycin (GIBCO-BRL, Grand Island, N.Y.). HEK-293 and COS-7 cells were cultured similarly, except that 10% FBS was used in the medium. Cells were seeded into 24-well plates two days before assay at a density of 2-2.5×10^5 cells/well (HKRK B7 or EW 5 cells) or 6×10^5 cells/well (in 6-well plates) (HEK-293 cells). In experiments involving HEK-293 cells, DNA transfections were performed 24 hr after plating and inositol radiolabel was added 24 hr thereafter (see below). COS-7 cell transfections were performed as previously described (Gardella, T. J., et al., Endocrinology 132(5):2024-2030 (1993))
Radioligand competition binding assays were performed at 2-8° C. for 6 hr using ^125I-[Nle^8,21, Tyr^34]rat PTH-(1-34) (100,000 cpm/well) in the presence or absence of non-radioactive hPTH-(1-34) analogs. Cell layers were washed three times before solubilization for determination of cell-associated radioactivity. […]

rat PTH-1 receptors [3] = target: T1, rat PTH-1 receptors; assay: PLC activation in EW5 cells; format: cell-based; settings: compared with human PTH-1 receptor
Procedure: as §1
PLC was activated by PTH agonists in the presence of 30 mM LiCl at 37° C. for 30 min after 16 hr of labeling with [^3H]myo-inositol (3 uCi/ml) in serum-free medium containing 0.1% bovine serum albumin. The reactions were stopped by rapid aspiration and addition of cold 5% TCA. Water-soluble radiolabeled inositol trisphosphate (IP3) was isolated after ether extraction by ion-exchange chromatography (Guo, J., et al., Endocrinology 136(9):3884-3891 (1995)). […]

membrane-bound PKCs = settings: osteoblast-like ROS 17/2 cells; Neugebauer et al. 1995; cited from earlier work

fold impairment of EC50 for AC at the rat PTH-1 receptor relative to hPTH-(1-34) (rat PTH-1 receptors [1]) | binding affinity for rat PTH-1 receptor, result in words (rat PTH-1 receptors [2]) | signaling (AC) via rat PTH-1 receptors, result in words (rat PTH-1 receptors [1]; compared with human PTH-1 receptor) | signaling (PLC) via rat PTH-1 receptors, result in words (rat PTH-1 receptors [3]) | Substance | stimulation of activity of membrane-bound PKCs (membrane-bound PKCs)
about 6 fold | – | – | – | GVSEIQLMHNLGKHLNSMRRVEWLRKKL [[Gly^1,Arg^19]hPTH-(1-28)] | –
– | comparable | more severely impaired | more severely impaired | SVSEIQLMHNLGKHLNSMERVEWLRKKL-NH2 [hPTH-(1-28)] | incapable of stimulating
